The subject of test [1] is smooth musculus trachealis. The test can be described thus: Relaxant activity of smooth musculus trachealis in guinea pig. Further details: species or system guinea pig (male Hartley). Conditions: Cavia porcellus; tracheal chain strips, 37° C.; read-out: Concentration for 50% relaxation. Here is the method:
Male Hartley guinea pigs weighing 350 to 550 g were bleed to death, and immediately the tracheae were extirpated. According to the method of Takagi et al [cf. Chem. Pharm. Bull., 8, 716 (1958)], tracheal chain strips was prepared, and the sample was suspended on Magnus apparatus under addition of load of 0.5 g. The test was carried out at 37° C. of liquid temperature. After position of tonus was examined with histamine (10^-6 g/ml) and isoproterenol (10^-7 g/ml), the test compound dissolved in a mixture of dimethyl sulfoxide and physiological saline was added thereto, and the test compound was investigated with respect to the effect on smooth musculus trachealis. Theophylline was used as a positive comparative drug. The relaxation and the contraction of smooth musculus trachealis were recorded on servocorder (SR 6342: commercially available from Watanabe Instruments Corp.) by connecting Isotonic Transducer (TD-1125: commercially available from Nihon Kohden Kogyo Co., Ltd.) to a balancing box.

For test [2], the system named is PCA (homologous passive cutaneous anaphylaxis) in rat. The test can be described thus: Inhibitory activity against PCA in rat. Type of test: in vivo, rat (male Slc: Wistar). The settings on record: 5 mg/kg oral, 1 hour before antigen challenge; for inhibition in vivo at 5 mg/kg: Rattus norvegicus, read-out: Inhibition rate against PCA. Here is the method: An anti-dinitrophenylated-ovalbumin (hereinafter referred to as "anti-DNP-OVA") rat antiserum having 800 of PCA titer in homologous passive cutaneous anaphylaxis reaction in rats for 48 hours, was diluted 200 times with physiological saline, and diluted antiserum was injected intradermally into back of groups of 5 male Slc: Wistar rats weighing 130-150 g in a volume of 50 μl/site to be passively sensitized. After 48 hours, 0.6 ml of 1% (w/v) Evans blue solution containing 1.5 mg of antigen DNP-OVA was administered intravenously into the tail. Thirty minutes later, the rats were bled to death and skin of the rats was removed. According to the method of Katayama et al [Microbiol. […] The test compound was suspended in 0.5% (w/v) aqueous solution of carboxymethylcellulose (hereinafter referred to as "CMC"), the suspension was administered orally in a ratio of 5 mg/kg 1 hour before challenging an antigen.
Inhibition rate against PCA was calculated according to the following equation. [formula] M: Amount of leaked pigment in antibody-sensitized site under administration of CMC without the test compound
S: Amount of leaked pigment in antibody-sensitized site under administration of the test compound in CMC
B: Amount of leaked pigment in antibody-nonsensitized site

The test system of test [3] is histamine release from rat mast cell. The test can be described thus: Inhibitory activity against histamine release from rat mast cell. The settings on record: 10 μg/ml, read-out: Inhibitory rate against histamine release. The class given is cell-based. The protocol:
An anti-dinitrophenylated-ovalbumin (anti DNP-OVA) rat antiserum having 800 of PCA titer in homologous passive cutaneous anaphylaxis reaction in rats for 48 hours was diluted double with physiological saline, and 1 ml of diluted antiserum was injected intraperitoneally into rats to be passively sensitized. On the next day, peritoneal exudation cell (hereinafter referred to as "PEC") was collected. The collected PEC was washed with a medium containing 0.1% BSA, and 1.5×10^5 of the PEC were added to each test tube. AFter incubation at 37° C. for 10 minutes, 50 μl of test compound solution in a same medium was added thereto. After 30 seconds, 50 μl of antigen solution (DVA-OVA 100 μg/ml) was further added thereto to give the total amount of 500 μl of the reaction mixture, and histamine release reaction was induced. After 10 minutes, 1 ml of physiological saline with cooled Tris buffered solution containing 1 mM EDTA were added thereto to stop the reaction. After centrifugation, the amount of histamine in supernatant was determined by fluorescence method according to the method of Shore et al [cf. J. Pharmacol. Exp. Ther., 127, 182 (1959)]. Inhibition rate against histamine release was calculated according to the following equation.
Inhibition rate against histamine release [formula] M: Amount of histamine in supernatant under addition of antigen and non-addition of test compound
S: Amount of histamine in supernatant under addition of antigen and test compound
B: Amount of histamine in supernatant under non-addition of antigen and test compound.
The test compound was used in a concentration of 10 μg/ml.

The target in a further test is T1, 5-lipoxygenase (Cavia porcellus, UniProt A0A286X958).
T1 construct: 5-lipoxygenase was prepared with polymorphonuclear leukocyte obtained from peritoneal cavity; endogenous in cells; host or cells: guinea pig peritoneal polymorphonuclear leukocytes (casein-elicited)
T1 sequence (A0A286X958 1-674): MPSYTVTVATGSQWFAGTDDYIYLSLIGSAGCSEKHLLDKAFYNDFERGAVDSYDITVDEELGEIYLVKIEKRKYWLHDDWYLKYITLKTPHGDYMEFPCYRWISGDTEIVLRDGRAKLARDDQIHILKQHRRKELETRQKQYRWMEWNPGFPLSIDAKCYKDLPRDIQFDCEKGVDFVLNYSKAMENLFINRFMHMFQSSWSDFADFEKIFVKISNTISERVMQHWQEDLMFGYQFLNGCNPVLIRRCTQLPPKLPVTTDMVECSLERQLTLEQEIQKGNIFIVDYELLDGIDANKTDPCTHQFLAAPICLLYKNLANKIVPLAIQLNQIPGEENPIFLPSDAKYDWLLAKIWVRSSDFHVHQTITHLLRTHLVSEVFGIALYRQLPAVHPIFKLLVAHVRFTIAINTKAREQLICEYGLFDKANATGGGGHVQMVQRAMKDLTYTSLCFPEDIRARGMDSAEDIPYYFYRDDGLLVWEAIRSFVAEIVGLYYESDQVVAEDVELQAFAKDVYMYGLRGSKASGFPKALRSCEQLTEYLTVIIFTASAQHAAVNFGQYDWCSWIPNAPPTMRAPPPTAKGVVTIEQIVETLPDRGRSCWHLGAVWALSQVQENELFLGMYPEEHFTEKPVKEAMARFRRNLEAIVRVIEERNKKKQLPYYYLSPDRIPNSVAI
The test can be described thus: 5-lipoxygenase inhibiting activity in guinea pig. Type of test: biochemical. Conditions: read-out: Inhibition rate against 5-lipoxygenase activity. Here is the method:
The test was carried out according to the method of Ochi [cf. J. Biol. Chem., 258, 5754-5758 (1983)]. Two % casein solution in saline was injected intraperitoneally into guinea pigs in an amount of 1/10 of body weight. After 16 hours, 5-lipoxygenase was prepared with polymorphonuclear leukocyte obtained from peritoneal cavity. Test compound and 5-lipoxygenase were pre-incubated at 30° C. for 10 minutes, CaCl2 (calcium chloride) and ^14 C-arachidonic acid were added thereto, and the resulting mixture was incubated for 20 minutes. A mixture of ethyl acetate/methanol/0.2M citric acid=30/4/1 (by volume) was added thereto to stop the reaction. After centrifugation, the organic solvent layer was spotted on a plate for thin layer chromatography and developed. Effect of the test compound was determined from the amount of ^14 C-5-hydroxyeicosatetraenoic acid (hereinafter referred to as "5-HETE") formed from ^14 C-arachidonic acid. Radioactivity of 5-HETE position was measured with a liquid scintillation counter.
Inhibition rate against 5-lipoxygenase activity was calculated according to the following equation.
Inhibition rate against 5-lipoxygenase activity [formula] A: Value of radioactivity in the control group B: Value of radioactivity in the test compound group
Each test compound was used in a concentration of 10 μM.

≈ marks a conversion by molar mass, not a printed value.

Turning to `N#Cc1c2cccccc-2nc1N=[N+]=[N-]` [Example 60, 2-Azido-3-cyano-1-azaazulene], the EC50 in test [1] is 52 µg/mL (≈ 266 µM). Further, in test [2], the inhibition in vivo at 5 mg/kg is -27 ± 17.7%. Besides, the inhibition at 10 µg/mL in test [3] was determined as 65.3%.
On to `CC(C)c1cccc2c(-c3nn[nH]n3)c(=O)n(CCCc3ccccc3)c-2c1` [Example 29], for which, in test [3], the inhibition at 10 µg/mL worked out at 99.5%. Besides, at 5-lipoxygenase, the inhibition at 10 µM is 17.3%.
Consider `CC(C)c1cccc2[nH]c(=O)c(-c3nnn[nH]3)c-2c1` [Example 1, 5-Iso-propyl-3-(5-tetrazolyl)-1-azaazulane-2-one], for which the EC50 in test [1] is 47 µg/mL (≈ 184 µM). Also, the inhibition at 10 µg/mL in test [3] came to 78.6%.
`Cn1c(=O)c2[nH]cnc2n(C)c1=O` [theophylline, reference compound]: in test [1], the EC50 stood at 6.8 µg/mL (≈ 37.7 µM).
Take `CCCCn1c2cc(C(C)C)cccc-2c(-c2nnn[nH]2)c1=O` [Example 18]: the EC50 in test [1] came out at 28 µg/mL (≈ 89.9 µM). Also, in test [3], the inhibition at 10 µg/mL was 86.9%.
On to `O=C(O)c1ccc(Cn2c3cccccc-3c(-c3nn[nH]n3)c2=O)cc1` [Example 38], for which the inhibition at 10 µg/mL in test [3] is 24.4%. Moreover, on 5-lipoxygenase, the inhibition at 10 µM was 31.7%.
As to `CC(C)c1cccc2n(Cc3ccccn3)c(=O)c(-c3nnn[nH]3)c-2c1` [Example 13, 5-Iso-propyl-1-(2-pyridylmethyl)-3-(5-tetrazolyl)-1-azaazulane-2-one], the EC50 in test [1] amounted to 12.4 µg/mL (≈ 35.8 µM). In addition, the inhibition at 10 µg/mL in test [3] amounted to 91.5%. For the same compound, the inhibition at 10 µM at 5-lipoxygenase is -9.4%.
`O=c1c(-c2nnn[nH]2)c2cccccc-2n1Cc1ccccc1` [Example 3, 1-Benzyl-3-(5-tetrazolyl)-1-azaazulane-2-one]: in test [2], the inhibition in vivo at 5 mg/kg came out at 98.6 ± 3.5%. The inhibition at 10 µg/mL in test [3] stood at 84.9%. The inhibition at 10 µM at 5-lipoxygenase came to 63.2%.
With `O=c1c(-c2nn[nH]n2)c2cccccc-2n1CSc1ccccc1` [Example 44], the inhibition at 10 µg/mL in test [3] amounted to 85%. In addition, the inhibition at 10 µM at 5-lipoxygenase was determined as 18.3%.
For the compound `Cc1ccc2c([nH]c(=O)c3c(=O)cc(C(=O)OCCC(C)C)oc32)c1C` [repirinast, Isopentyl 5,6dihydro-7,8-dimethyl-4,5-dioxo-4Hpyrano[3,2c]quinoline2-carboxylate, reference compound], the inhibition in vivo at 5 mg/kg in test [2] worked out at 36.2 ± 5.8%.
“5(3-Butyloxyallylaminophenyl)-1H-tetrazole [WP-833, reference compound]”: the “Inhibition rate against PCA” value in test [2] amounted to 42.8 ± 5.1%.
Take `O=c1c(-c2nn[nH]n2)c2cccccc-2n1CCOc1ccccc1` [Example 43]: the inhibition at 10 µg/mL in test [3] worked out at 65.3%. For the same compound, at 5-lipoxygenase, the inhibition at 10 µM is -7.2%.
Regarding `CC(C)c1cccc2n(Cc3ccccc3)c(=O)c(-c3nnn[nH]3)c-2c1` [Example 4, 5-Iso-propyl-1-benzyl-3-(5-tetrazolyl)-1-azaazulane-2-one], in test [1], the EC50 was 6.6 µg/mL (≈ 19.1 µM). Further, the inhibition in vivo at 5 mg/kg in test [2] is 78.2 ± 4.1%. Further, in test [3], the inhibition at 10 µg/mL came out at 84.4%. In addition, the inhibition at 10 µM at 5-lipoxygenase is -1.1%.
For `O=c1c(-c2nn[nH]n2)c2cccccc-2n1CCc1ccc(O)c(O)c1` [Example 46], the inhibition at 10 µg/mL in test [3] worked out at 57.6%. Besides, the inhibition at 10 µM at 5-lipoxygenase stood at 41.8%.
Taken in the same sequence, the figures for `CC(C)c1cccc2c(-c3nnn[nH]3)c(=O)n(CCCCCc3ccccc3)c-2c1` [Example 7, 7-Iso-propyl-1-(5-phenylpentyl)-3-(5-tetrazolyl)-1-azaazulane-2-one] were 10.6% and 60.6%.
In the case of `CCCc1c(OCCCn2c3cccccc-3c(-c3nn[nH]n3)c2=O)ccc(C(C)=O)c1O` [Example 49], the EC50 in test [1] is 42.3 µg/mL (≈ 94.5 µM). The inhibition at 10 µg/mL in test [3] was 62.8%. Moreover, the inhibition at 10 µM on 5-lipoxygenase is -2.6%.
Taken in the same sequence, the figures for `CC(C)c1cccc2n(CCCCCc3ccccc3)c(=O)c(-c3nnn[nH]3)c-2c1` [Example 6, 5-Iso-propyl-1-(5-phenylpentyl)-3-(5-tetrazolyl)-1-azaazulane-2-one] were 13.1 µg/mL (≈ 32.6 µM), 6.3% and 27%.
As to `CC(C)c1cccc2c(-c3nnn[nH]3)c(=O)[nH]c-2c1` [Example 2, 7-Iso-propyl-3-(5-tetrazolyl)-1-azaazulane-2-one], the EC50 in test [1] amounted to 25 µg/mL (≈ 97.9 µM). Further, the inhibition at 10 µg/mL in test [3] amounted to 81.4%.
As for `CC(C)(C)c1cc(C(=O)Cn2c3cccccc-3c(-c3nn[nH]n3)c2=O)cc(C(C)(C)C)c1O` [Example 48], in test [3], the inhibition at 10 µg/mL is 10.4%. Besides, at 5-lipoxygenase, the inhibition at 10 µM is -1.1%.
Regarding `N#Cc1c2cccccc-2nc1NCC(=O)O` [Example 62, 3-Cyano-2-carboxymethylamino-1-azaazulene], the inhibition in vivo at 5 mg/kg in test [2] was 14 ± 4.3%. Also, the inhibition at 10 µg/mL in test [3] came out at 82.5%. Further, at 5-lipoxygenase, the inhibition at 10 µM came to 5.2%.
As for `CC(C)c1cccc2c(-c3nnn[nH]3)c(=O)n(C)c-2c1` [Example 16], the EC50 in test [1] was 43 µg/mL (≈ 160 µM). In addition, in test [3], the inhibition at 10 µg/mL amounted to 88.3%.
Take `CCCCn1c2cccc(C(C)C)cc-2c(-c2nnn[nH]2)c1=O` [Example 19]: the EC50 in test [1] amounted to 44 µg/mL (≈ 141 µM). The inhibition at 10 µg/mL in test [3] turned out to be 83.4%.
As for `CC(C)c1cccc2c(-c3nn[nH]n3)c(=O)n(CCCCc3ccccc3)c-2c1` [Example 51], in test [3], the inhibition at 10 µg/mL was found to be 63.6%. Further, at 5-lipoxygenase, the inhibition at 10 µM was -2.2%.
As to `CCCCn1c2cccccc-2c(-c2nnn[nH]2)c1=O` [Example 17], the inhibition in vivo at 5 mg/kg in test [2] is -1.9 ± 9.2%. The inhibition at 10 µg/mL in test [3] came out at 89.5%.
In the case of `O=c1c(-c2nn[nH]n2)c2cccccc-2n1Cc1ccc(C(F)(F)F)cc1` [Example 35], in test [3], the inhibition at 10 µg/mL amounted to 54.1%. For the same compound, at 5-lipoxygenase, the inhibition at 10 µM worked out at 34.9%.
